Measurements: patent US6723364B1, “Fog treatment method using a liquid composition for treating fruits and vegetables and implementing device” (Xeda International, priority 1998, dated 2004)
Converted amounts (≈) assume the structure as drawn. Where two headings read alike, the source gives them in different places.

Key:
Type in all cases: cell-based
Alternaria alternata [1] = test: Fungicidal activity in vitro: mycelial growth on Cristomalt agar; conditions: for Inhibition grades: MIC expressed on the scale of Table 2; for MIC: Alternaria alternata, read-out: MIC (content giving complete inhibition of mycelial growth)
Protocol: (§1) The Cristomalt medium used for the evaluations of the fungicidal activities comprises 0.1% of Cristomalt (malt extract) and 0.2% of agar.
(§2) This culture medium is, after sterilization, brought to 55° C. The terpene compound tested is then introduced in the pure form into the culture medium under warm conditions. Immediately after agitating, the medium, enriched with the terpene product, is poured into Petri dishes (diameter 9 cm, filled with 20 ml of medium). The agar-comprising medium solidifies on cooling. The Petri dishes are then inoculated with plugs, with a diameter of 6 mm, withdrawn from the edge of a culture of the tested fungus, which culture is obtained on Cristomalt medium.
(§3) Inoculation is carried out at 22° C.
(§4) The mycelial growth was determined periodically (5 to 15 days, according to the species of fungus).
(§5) The results are expressed in Table 3 below in terms of MIC, which is the content (in μg/ml) which makes it possible to obtain complete inhibition of mycelial growth.
(§6) In f act, each experiment was carried out several times, so that, for each terpene and for each species of fungus, a minimum value and a maximum value were obtained.

Botrytis cinerea [2] = test: as above; conditions: for Inhibition grades: MIC expressed on the scale of Table 2; for MIC: Botrytis cinerea, read-out: MIC (content giving complete inhibition of mycelial growth)
Protocol: as §1, §2, §3, §4, §5, §6

Fusarium oxysporum [3] = test: as above; conditions: for MIC: Fusarium oxysporum, read-out: MIC (content giving complete inhibition of mycelial growth); for Inhibition grades: OF, MIC expressed on the scale of Table 2
Protocol: as §1, §2, §3, §4, §5, §6

Geocrichum candidum [4] = test: as above; conditions: for Inhibition grades: MIC expressed on the scale of Table 2; for MIC: read-out: MIC (content giving complete inhibition of mycelial growth)
Protocol: as §1, §2, §3, §4, §5, §6

Gliocladium roseum = test: as above; conditions: for MIC: Clonostachys rosea, read-out: MIC (content giving complete inhibition of mycelial growth); for Inhibition grades: MIC expressed on the scale of Table 2
Protocol: as §1, §2, §3, §4, §5, §6

Penicillium digitatum [5] = test: as above; conditions: for Inhibition grades: MIC expressed on the scale of Table 2; for MIC: Penicillium digitatum, read-out: MIC (content giving complete inhibition of mycelial growth)
Protocol: as §1, §2, §3, §4, §5, §6

Penicillium expansum [6] = test: as above; conditions: for Inhibition grades: MIC expressed on the scale of Table 2; for MIC: Penicillium expansum, read-out: MIC (content giving complete inhibition of mycelial growth)
Protocol: as §1, §2, §3, §4, §5, §6

[7] = tested on: Phlyctaena vagabonda (“Gloeosporium”); test: as above; conditions: for Inhibition grades: MIC expressed on the scale of Table 2; for MIC: read-out: MIC (content giving complete inhibition of mycelial growth)
Protocol: as §1, §2, §3, §4, §5, §6

Phytophtora parasitica [8] = test: as above; conditions: for Inhibition grades: MIC expressed on the scale of Table 2; for MIC: read-out: MIC (content giving complete inhibition of mycelial growth)
Protocol: as §1, §2, §3, §4, §5, §6

Alternaria alternata [9] = test: Germination of the spores in vitro; conditions: AA;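 further: ++ germination like control and 0 no spores germinated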
Protocol: (§7) The activity of eugenol and of isoeugenol on the germination of the spores was evaluated in vitro and compared with that of other terpenes.
(§8) The procedure of Example 4 is used to do this, except that the concentration of eugenol and of isoeugenol was set at x μg/ml in the culture media used and that 50 μl of a suspension of spores, adjusted to 100,000 spores/ml, are deposited in each Petri dish.
(§9) The same experiment was carried out starting with a terpene-free culture medium (control test).
(§10) The results were evaluated using the following assessment criteria:
(§11) +: considerable reduction in the level of spores germinated
(§12) The results obtained for 3 different concentrations of terpenes in the culture medium, namely 40 μg/ml, 80 μg/ml and 1280 μg/ml, are listed in Tables 4, 5 and 6.

Botrytis cinerea [10] = test: Germination of the spores in vitro; conditions: BC
Protocol: as §7, §8, §9, §10, §11, §12

Fusarium oxysporum [11] = test: Germination of the spores in vitro; conditions: FO;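 further: ++ germination like control and 0 no spores germinated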
Protocol: as §7, §8, §9, §10, §11, §12

Geocrichum candidum [12] = test: Germination of the spores in vitro; conditions: GC
Protocol: as §7, §8, §9, §10, §11, §12

Penicillium digitatum [13] = test: Germination of the spores in vitro; conditions: PD
Protocol: as §7, §8, §9, §10, §11, §12

Penicillium expansum [14] = test: Germination of the spores in vitro; conditions: PE;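 further: ++ germination like control and 0 no spores germinated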
Protocol: as §7, §8, §9, §10, §11, §12

[15] = tested on: Phlyctaena vagabonda (“Gloeosporium”); test: Germination of the spores in vitro; conditions: PV;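 further: ++ germination like control and 0 no spores germinated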
Protocol: as §7, §8, §9, §10, §11, §12

Phytophtora parasitica [16] = test: Germination of the spores in vitro; conditions: PhP
Protocol: as §7, §8, §9, §10, §11, §12

Erwinia carotovora = test: Bactericidal activity in vitro in LB agar medium; conditions: for MIC: Pectobacterium carotovorum, read-out: MIC (concentration needed to completely inhibit the growth of the bacteria)
Protocol: The bactericidal activity of eugenol and isoeugenol was evaluated in vitro and compared with that of other terpenes.
The culture medium used is the following LB medium:
Bactotryptone: 1% by weight
Yeast extract: 0.5% by weight
A suspension of bacteria at 10^6 CFU/ml was prepared in sterilized water from the LB medium. 200 μl of this bacterial suspension were added to 20 ml of presterilized LB culture medium brought to 55° C. The tested terpene is then added to the culture medium. After agitation, the medium is immediately divided among Petri dishes. The medium solidifies on cooling.
Incubation is carried out at 28° C. when the bacterium is Erwinia carotovora and at 37° C. when the bacterium is Escherichia coli.
The growth of mould in the culture medium is observed. The same experiment is carried out in the absence of terpene (control experiment).
The results are evaluated using the following assessment scale:
++: mould growth identical to the control
+: mould present with a marked reduction in growth with respect to the control
: complete absence of growth.
The results obtained for 3 different concentrations, namely 20, 80 and 320 μg/ml, in the case of the bacterium Erwinia carotovora are summarized in Table 7.
The protocol used is that described above.

[17] = Concentration 320 μg/ml, 28° C.

C=CCc1ccc(O)c(OC)c1 [EUGENOL, eugenol]
Inhibition grades (Alternaria alternata [1]; AA): 7 (20-40)
MIC (Alternaria alternata [1]; AA, min-max range of several experiments, 22° C.): 20 to 40 µg/mL (≈ 122 to 244 µM)
Inhibition grades (Botrytis cinerea [2]; BC): 7 (20-40)
MIC (Botrytis cinerea [2]; BC, min-max range of several experiments, 22° C.): 20 to 40 µg/mL (≈ 122 to 244 µM)
MIC (Fusarium oxysporum [3]; FO, min-max range of several experiments, 22° C.): 20 to 40 µg/mL (≈ 122 to 244 µM)
Inhibition grades (Fusarium oxysporum [3]): 7 (20-40)
Inhibition grades (Geocrichum candidum [4]; GC): 8 (10-20)
MIC (Geocrichum candidum [4]; GC, min-max range of several experiments, 22° C.): 10 to 20 µg/mL (≈ 60.9 to 122 µM)
MIC (Gliocladium roseum; GR, min-max range of several experiments, 22° C.): 20 to 40 µg/mL (≈ 122 to 244 µM)
Inhibition grades (Gliocladium roseum; GR): 7 (20-40)
Inhibition grades (Penicillium digitatum [5]; PD): 7 (20-40)
MIC (Penicillium digitatum [5]; PD, min-max range of several experiments, 22° C.): 20 to 40 µg/mL (≈ 122 to 244 µM)
Inhibition grades (Penicillium expansum [6]; PE): 7 (20-40)
MIC (Penicillium expansum [6]; PE, min-max range of several experiments, 22° C.): 20 to 40 µg/mL (≈ 122 to 244 µM)
Inhibition grades ([7]; PV): 6 (40-80)
MIC ([7]; PV, min-max range of several experiments, 22° C.): 40 to 80 µg/mL (≈ 244 to 487 µM)
Inhibition grades (Phytophtora parasitica [8]; PhP): 7 (20-40)
MIC (Phytophtora parasitica [8]; PhP, min-max range of several experiments, 22° C.): 20 to 40 µg/mL (≈ 122 to 244 µM)
germination of the spores (Alternaria alternata [9]; x = 40 μg/ml): 0
germination of the spores (Alternaria alternata [9]; x = 80 μg/ml): 0
germination of the spores (Alternaria alternata [9]; x = 1280 μg/ml): 0
germination of the spores (Botrytis cinerea [10]; x = 40 μg/ml): 0
germination of the spores (Botrytis cinerea [10]; x = 80 μg/ml): 0
germination of the spores (Botrytis cinerea [10]; x = 1280 μg/ml): 0
germination of the spores (Fusarium oxysporum [11]; x = 40 μg/ml): 0
germination of the spores (Fusarium oxysporum [11]; x = 80 μg/ml): 0
germination of the spores (Fusarium oxysporum [11]; x = 1280 μg/ml): 0
germination of the spores (Geocrichum candidum [12]; x = 40 μg/ml): 0
germination of the spores (Geocrichum candidum [12]; x = 80 μg/ml): 0
germination of the spores (Geocrichum candidum [12]; x = 1280 μg/ml): 0
germination of the spores (Penicillium digitatum [13]; x = 40 μg/ml): 0
germination of the spores (Penicillium digitatum [13]; x = 80 μg/ml): 0
germination of the spores (Penicillium digitatum [13]; x = 1280 μg/ml): 0
germination of the spores (Penicillium expansum [14]; x = 40 μg/ml): 0
germination of the spores (Penicillium expansum [14]; x = 80 μg/ml): 0
germination of the spores (Penicillium expansum [14]; x = 1280 μg/ml): 0
germination of the spores ([15]; x = 40 μg/ml): 0
germination of the spores ([15]; x = 80 μg/ml): 0
germination of the spores ([15]; x = 1280 μg/ml): 0
germination of the spores (Phytophtora parasitica [16]; x = 40 μg/ml): 0
germination of the spores (Phytophtora parasitica [16]; x = 80 μg/ml): 0
germination of the spores (Phytophtora parasitica [16]; x = 1280 μg/ml): 0
growth in the culture medium with respect to the control (Erwinia carotovora; Concentration 20 μg/ml, 28° C.): +
growth in the culture medium with respect to the control (Erwinia carotovora; Concentration 80 μg/ml, 28° C.): −
growth in the culture medium with respect to the control (Erwinia carotovora; [17]): −
MIC (Erwinia carotovora; Erwinia sp., 28° C.): 20 to 40 µg/mL (≈ 122 to 244 µM)

C=CCc1ccc2c(c1)OCO2 [SAFROLE, safrole]
Inhibition grades (Alternaria alternata [1]; AA): 5 (80-160)
MIC (Alternaria alternata [1]): 80 to 160 µg/mL (≈ 493 to 987 µM)
Inhibition grades (Botrytis cinerea [2]; BC): 5 (80-160)
MIC (Botrytis cinerea [2]): 80 to 160 µg/mL (≈ 493 to 987 µM)
MIC (Fusarium oxysporum [3]): 80 to 160 µg/mL (≈ 493 to 987 µM)
Inhibition grades (Fusarium oxysporum [3]): 5 (80-160)
Inhibition grades (Geocrichum candidum [4]; GC): 4 (160-320)
MIC (Geocrichum candidum [4]): 160 to 230 µg/mL (≈ 987 to 1420 µM)
MIC (Gliocladium roseum): 40 to 80 µg/mL (≈ 247 to 493 µM)
Inhibition grades (Gliocladium roseum; GR): 6 (40-80)
Inhibition grades (Penicillium digitatum [5]; PD): 4 (160-320)
MIC (Penicillium digitatum [5]): 160 to 230 µg/mL (≈ 987 to 1420 µM)
Inhibition grades (Penicillium expansum [6]; PE): 2 (640-1280)
MIC (Penicillium expansum [6]): 640 to 1280 µg/mL (≈ 3950 to 7890 µM)
Inhibition grades ([7]; PV): 5 (80-160)
MIC [7]: 80 to 160 µg/mL (≈ 493 to 987 µM)
Inhibition grades (Phytophtora parasitica [8]; PhP): 6 (40-80)
MIC (Phytophtora parasitica [8]): 40 to 80 µg/mL (≈ 247 to 493 µM)
germination of the spores (Alternaria alternata [9]; x = 40 μg/ml): ++
germination of the spores (Alternaria alternata [9]; x = 80 μg/ml): +
germination of the spores (Alternaria alternata [9]; x = 1280 μg/ml): 0
germination of the spores (Botrytis cinerea [10]; x = 40 μg/ml): +
germination of the spores (Botrytis cinerea [10]; x = 80 μg/ml): 0
germination of the spores (Botrytis cinerea [10]; x = 1280 μg/ml): 0
germination of the spores (Fusarium oxysporum [11]; x = 40 μg/ml): ++
germination of the spores (Fusarium oxysporum [11]; x = 80 μg/ml): +
germination of the spores (Fusarium oxysporum [11]; x = 1280 μg/ml): 0
germination of the spores (Geocrichum candidum [12]; x = 40 μg/ml): ++
germination of the spores (Geocrichum candidum [12]; x = 80 μg/ml): +
germination of the spores (Geocrichum candidum [12]; x = 1280 μg/ml): 0
germination of the spores (Penicillium digitatum [13]; x = 40 μg/ml): +
germination of the spores (Penicillium digitatum [13]; x = 80 μg/ml): +
germination of the spores (Penicillium digitatum [13]; x = 1280 μg/ml): 0
germination of the spores (Penicillium expansum [14]; x = 40 μg/ml): +
germination of the spores (Penicillium expansum [14]; x = 80 μg/ml): +
germination of the spores (Penicillium expansum [14]; x = 1280 μg/ml): +
germination of the spores ([15]; x = 40 μg/ml): +
germination of the spores ([15]; x = 80 μg/ml): +
germination of the spores ([15]; x = 1280 μg/ml): 0
germination of the spores (Phytophtora parasitica [16]; x = 40 μg/ml): 0
germination of the spores (Phytophtora parasitica [16]; x = 80 μg/ml): 0
germination of the spores (Phytophtora parasitica [16]; x = 1280 μg/ml): 0
growth in the culture medium with respect to the control (Erwinia carotovora; Concentration 20 μg/ml, 28° C.): ++
growth in the culture medium with respect to the control (Erwinia carotovora; Concentration 80 μg/ml, 28° C.): ++
growth in the culture medium with respect to the control (Erwinia carotovora; [17]): +
MIC (Erwinia carotovora): 320 to 640 µg/mL (≈ 1970 to 3950 µM)
